Assays:
[1] = system: area CA1 of hippocampal slices; assay: DHPG induced mGluR-LTD, field EPSP recordings in acute hippocampal slices; parameters: species or system mice
Method: Acute hippocampal slices were prepared from P25-30 animals in ice-cold dissection buffer containing (in mM): NaCl 87, Sucrose 75, KCl 2.5, NaH2PO4 1.25, NaHCO3 25, CaCl2 0.5, MgSO4 7, Ascorbic acid 1.3, and D-glucose 10 (saturated with 95% O2/5% CO2). Immediately following slicing the CA3 region was removed. Slices were recovered in artificial cerebrospinal fluid (ACSF) containing (in mM): NaCl 124, KCl 5, NaH2PO4 1.23, NaHCO3 26, CaCl2 2, MgCl2 1 and D-glucose 10 (saturated with 95% O2/5% CO2) at 32.5° C. for about >3 hours prior to recording.
(§1) Field recordings were performed in a submersion chamber, perfused with ACSF (about 2-3 ml/min) at 30° C. Field EPSPs (fEPSPs) were recorded in CA1 stratum radiatum with extracellular electrodes filled with ACSF. Baseline responses were evoked by stimulation of the Schaffer collaterals at 0.033 Hz with a 2-contact cluster electrode (FHC) using about a 0.2 ms stimulus yielding about 40-60% of the maximal response. fEPSP recordings were filtered at about 0.1 Hz-1 kHz, digitized at 10 kHz, and analyzed using pClamp9 (Axon Instruments). The initial slope of the response was used to assess changes in synaptic strength. Data were normalized to the baseline response and are presented as group means±SEM. LTD was measured by comparing the average response about 55-60 minutes post DHPG application to the average of the last 5 minutes of baseline.
(§2) Input output function was examined by stimulating slices with incrementally increasing current (about 20, about 40, about 80, about 120, about 200, about 300 μA) and recording the fEPSP response. Paired pulse facilitation was induced by applying two pulses at different interstimulus intervals (about 10, about 20, about 50, about 100, about 200, about 300, about 500 ms). Facilitation was measured by the ratio of the fEPSP slope of stimulus 2 to stimulus 1. NMDAR-dependent LTD was induced by delivering 900 test pulses at 1 Hz. mGluR-LTD was induced by applying R, S-Dihydroxyphenylglycine (R,S-DHPG, 50 μM) or S-Dihydroxyphenylglycine (S-DHPG, 25 μM) for about 5 minutes, the effects of which were followed for 60 minutes following treatment. In some experiments slices were incubated with the protein synthesis inhibitor cycloheximide (60 μM) for 30 minutes as follows: about 20 minutes during baseline recording, about 5 minutes during DHPG application and about 5 minutes post DHPG application.
For mGluR PAM experiments, slices were pretreated with CDPPB (10 μM) or DMSO control for about 30 minutes in same manner as above, either in the presence of cycloheximide or control ACSF. For rapamycin experiments, slices were pretreated with rapamycin (20 nM) or DMSO control, with or without cycloheximide, for at least 30 minutes prior to DHPG application and throughout the entire experiment.

[2] = system: wildtype and Tsc2^+/− mice; assay: Context fear-conditioning (context discrimination); format: in vivo; details: for effect on context discrimination (in words): 10 mg/kg i.p. 30 minutes prior to training; for percentage of time spent freezing: single injection 10 mg/kg i.p. 30 minutes prior to training, tested 24 hours later
Method: Context fear-conditioning experiments were employed to assess improvements in cognitive processing following administration of a composition that activates Group I mGluR signaling, such as by administration of mGluR5PAMs. Context fear-conditioning was performed using a modification of a previously described procedure (Ehninger, D., et al., Nat Med 14, 843-8 (2008). Wildtype and Tsc2^+/− mice (8-12 weeks old) are habituated to the testing room and experimenter for 3 days prior to training On the day of training, mice is placed in the training context and delivered one 0.80 mA shocks (2 sec). The mice were allowed about 3 minutes to explore context before conditioning and were removed about 15 sec after the shock was given and returned to home cage. Conditioned fear response was assessed 24 hours later by a trained observer measuring the percentage of time spent freezing during the test period (about 3 min session). To determine context specificity of the conditioned response, mice trained at the same time were separated into two groups: one group was tested in the same training context and the other tested in a novel context. This novel context was created by varying: distal cues, odor, floor material, and lighting of the testing apparatus. For rescue experiments, animals received a single injection of CDPPB (10 mg/kg, i.p.) about 30 minutes prior to training session.
Cognitive impairments in the Tsc2^+/− mice were improved by treating the animals with the mTORC1 inhibitor rapamycin (Ehninger, D., et al., Nat. Med. 14: 843-848 (2008)). A robust phenotype was reported to be an impairment in the ability of the Tsc2^+/− mice to distinguish between familiar and novel contexts in a fear conditioning paradigm. The advantage of this paradigm is the learning occurs in one trial, making it amenable to acute drug treatment, and the memory is hippocampus-dependent. The mice are first exposed to a distinctive context in which they receive an aversive foot shock. The next day, context discrimination is tested by dividing the animals into two groups, one placed in the familiar context associated with the shock, and the other placed in a novel context (FIG. 6A). Context discrimination is assessed by measuring the time the animals express fear by freezing in each context.

[3] = system: area CA1 of hippocampal slices; assay: Paired pulse facilitation (presynaptic LTD) in acute hippocampal slices; parameters: species or system mice; details: for PPF (ratio of fEPSP slope of stimulus 2 to stimulus 1): 50 ms inter-stimulus interval, 60 minutes post DHPG (FIG. 3D)
Method: as §1, §2

## CO[C@H]1C[C@@H]2CC[C@@H](C)[C@@](O)(O2)C(=O)C(=O)N2CCCC[C@H]2C(=O)O[C@H]([C@H](C)C[C@@H]2CC[C@@H](O)[C@H](OC)C2)CC(=O)[C@H](C)/C=C(\C)[C@@H](O)[C@@H](OC)C(=O)[C@H](C)C[C@H](C)/C=C/C=C/C=C/1C [RAP, rapamycin]
[1]; slices from Tsc2^+/− mice, pretreatment with rapamycin 20 nM (FIG. 5B)
  DHPG induced LTD (fEPSP slope normalized to baseline): 75.3±3%
[1]; slices from Tsc2^+/− mice, rapamycin 20 nM with cycloheximide (FIG. 5C)
  DHPG induced LTD (fEPSP slope normalized to baseline): 89.3±2.4%
[1]; slices from WT mice
  effect on DHPG induced LTD (in words): no effect
[1]; slices from wildtype animals, pretreatment with rapamycin 20 nM (FIG. 5A)
  DHPG induced LTD (fEPSP slope normalized to baseline): 73.0%

## N#Cc1cccc(C(=O)Nc2cc(-c3ccccc3)nn2-c2ccccc2)c1 [CDPPB, 3-cyano-N-(1,3-diphenyl-1H-pyrazol-5-yl)benzamide]
[1]; slices from Tsc2^+/− mice
  effect on DHPG induced LTD (in words): restored the magnitude of mGluR-LTD in Tsc2^+/− mice to WT levels
[1]; slices from Tsc2^+/− mice, CDPPB 10 μM co-applied with cycloheximide (FIG. 5E)
  DHPG induced LTD (fEPSP slope normalized to baseline): 84.8±1.8%
[1]; slices from Tsc2^+/− mice, pretreatment with CDPPB 10 μM (FIG. 5D)
  DHPG induced LTD (fEPSP slope normalized to baseline): 72.7±4.4%
[1]; slices from Tsc2^+/− mice, with cycloheximide
  effect on DHPG induced LTD in the presence of cycloheximide (in words): completely eliminated by cycloheximide
[2]; Tsc2^+/− mice
  effect on context discrimination (in words): sufficient to correct the deficit in context discrimination
[2]; Tsc2^+/− mice, familiar context
  percentage of time spent freezing: 44.5±4.3%
[2]; Tsc2^+/− mice, novel context
  percentage of time spent freezing: 31.6±3%
[2]; WT mice
  effect on context discrimination (in words): no effect
[2]; WT mice, familiar context
  percentage of time spent freezing: 42.3±3.7%
[2]; WT mice, novel context
  percentage of time spent freezing: 26.4±3.6%

## N[C@@H](C(=O)O)c1cc(O)cc(O)c1 (racemic) [DHPG, (R,S)-3,5-dihydroxyphenylglycine]
[1]; slices from Tsc2^+/− mice, DHPG alone, 5 min, 55-60 min post DHPG (FIG. 3B)
  DHPG induced LTD (fEPSP slope normalized to baseline): 85.2±2.7%
[1]; slices from WT mice, DHPG alone, 5 min, 55-60 min post DHPG (FIG. 3B)
  DHPG induced LTD (fEPSP slope normalized to baseline): 74.1±2.0%
[3]; Tsc2^+/− slices
  PPF (ratio of fEPSP slope of stimulus 2 to stimulus 1): 1.63±0.02
[3]; WT slices
  PPF (ratio of fEPSP slope of stimulus 2 to stimulus 1): 1.59±0.04

## C[C@@H]1C[C@@H]([C@H](O)CC2CC(=O)NC(=O)C2)C(=O)[C@@H](C)C1 [CHX, cycloheximide]
[1]; slices from Tsc2^+/− mice
  effect on DHPG induced LTD (in words): no effect on LTD
[1]; slices from Tsc2^+/− mice, cycloheximide 60 μM (FIG. 3C)
  DHPG induced LTD (fEPSP slope normalized to baseline): 83.5±2.1%
[1]; slices from WT mice
  effect on DHPG induced LTD (in words): reliably reduced
[1]; slices from WT mice, pretreatment with cycloheximide 60 μM (FIG. 3A)
  DHPG induced LTD (fEPSP slope normalized to baseline): 85.6±3.4%
[3]; Tsc2^+/− slices, DHPG+CHX
  PPF (ratio of fEPSP slope of stimulus 2 to stimulus 1): 1.62±0.04
[3]; WT slices, DHPG+CHX
  PPF (ratio of fEPSP slope of stimulus 2 to stimulus 1): 1.58±0.05
[3]; WT slices, cycloheximide 60 μM (FIG. 3D)
  effect on changes in PPF following DHPG (in words): not inhibited

Source: US20120264784A1, “METHODS OF TREATING ELEVATIONS IN MTOR SIGNALING” (priority 2009, published 2012)
